Source: PMC8123555, “Precision targeting of the plasminogen activator inhibitor‐1 mechanism increases efficacy of fibrinolytic therapy in empyema” (Physiological Reports, 2021)

How the values were obtained:
[1] = test system: chemically induced (TCN) pleural injury; assay: Fibrinolytic therapy of TCN-induced pleural injury in rabbits (GLIS, pleural thickening); format: in vivo, rabbit; details: outcome at 24 h
From the text: All animal procedures were approved by the Institutional Animal Care and Use Committee at The University of Texas Health Science Center at Tyler (IACUC protocols 499,616,617). Studies used female, pathogen‐free New Zealand white rabbits (3.0–3.6 kg; average age 18 weeks) from Charles River Laboratories (Wilmington, MA). These studies required a total of 107 rabbits, 43 for the model of TCN‐induced pleural injury and 64 for the model of empyema. […] Accumulation of pleural fluid and fibrin deposition was monitored using ultrasonography; detailed in the ultrasonography subsection. […] Animals were monitored carefully for signs of distress, pain, and worsening clinical status. […]
Development of pleural injury was monitored via ultrasonography. […]
For each animal, gross lung injury scores (GLIS) were calculated as previously described (Florova et al., 2015; Karandashova et al., 2013; Komissarov et al., 2013). […] Pleural thickening was measured using morphometry, as previously described (Komissarov et al., 2016).

[2] = test system: Streptococcus pneumoniae induced empyema; assay: Fibrinolytic therapy of S. pneumoniae induced empyema in rabbits (GLIS, pleural thickening, WBC differential); format: in vivo, rabbit
Description: All animal procedures were approved by the Institutional Animal Care and Use Committee at The University of Texas Health Science Center at Tyler (IACUC protocols 499,616,617). Studies used female, pathogen‐free New Zealand white rabbits (3.0–3.6 kg; average age 18 weeks) from Charles River Laboratories (Wilmington, MA). These studies required a total of 107 rabbits, 43 for the model of TCN‐induced pleural injury and 64 for the model of empyema. […] Briefly, a 3 ml mixture of TCN in ascorbic acid (20 mg/ml TCN (T3258, Sigma‐Aldrich), 2.5 mg/ml ascorbic acid (A7506, Sigma‐Aldrich) and lidocaine (1 mg/ml, UTHCT Compounding Pharmacy), was delivered by intrapleural injection. A model of acute empyema in rabbits was induced as described previously (Komissarov et al., 2016). Briefly, 1–5 × 10^8 cfu of S. pneumoniae (D39 strain, National Collection of Type Cultures, Salisbury UK) in 3 ml of 0.5% brain‐heart infusion agar (BD 238400, BD Diagnostic Systems) was delivered by intrapleural injection. Clavomox (10 mg/kg, subcutaneous, daily for 1–3 days as clinically indicated by Attending Veterinarian) (10000485, Zoetis) was started at 28–30 h post‐infection. Accumulation of pleural fluid and fibrin deposition was monitored using ultrasonography; detailed in the ultrasonography subsection. After 48 or 72 h for TCN‐induced pleural injury and empyema, respectively, intrapleural therapeutics were administered depending on treatment group via an 18‐gauge catheter, which was flushed with 0.5 ml PBS. In all experiments, samples of pleural fluids (0.5 ml) from each rabbit were collected prior to and at 10, 20, and 40 min after PAI‐1‐TFT and processed for later analysis (Florova et al., 2015; Karandashova et al., 2013; Komissarov et al., 2013, 2016). Anesthesia, postoperative pain medication, and animal care were provided as reported previously (Florova et al., 2015; Karandashova et al., 2013; Komissarov et al., 2013, 2016). with details provided in the supplement. Animals were monitored carefully for signs of distress, pain, and worsening clinical status. Euthanasia was accomplished using intravenous injection of 1 ml of commercial euthanasia solution (sodium pentobarbital 390 mg/ml and phenytoin 50 mg/ml) followed by exsanguination.
Development of pleural injury was monitored via ultrasonography. Briefly, B‐mode ultrasonography of the chest was performed (Komissarov et al., 2013, 2015) using a Logiq e system (GE Healthcare, Milwaukee, WI) using R5.2.x software and a multifrequency transducer model 12L‐RS at a working frequency of 10 MHz, as previously described (Komissarov et al., 2016).
For each animal, gross lung injury scores (GLIS) were calculated as previously described (Florova et al., 2015; Karandashova et al., 2013; Komissarov et al., 2013). PAI‐1‐TFT was considered successful when GLIS ≤10. Multiple fibrin webs or sheets connecting the visceral and parietal pleura or “too numerous to count” (TNTC) strands and a fibrinous lung coating correlated with a GLIS = 50. Pleural thickening was measured using morphometry, as previously described (Komissarov et al., 2016).

[3] = test system: chemically induced (TCN) pleural injury; details: bolus, ref Idell et al., 2007; cited from earlier work
From the text: (§1) Plasminogen Activator Inhibitor‐1 (PAI‐1) is a mechanism‐based inhibitor of tissue type (tPA) and urokinase (uPA) plasminogen activators (PAs) (Carrell et al., 1991; Chaillan‐Huntington et al., 1997; Mourik et al., 1984) used for fibrinolytic therapy. Levels of PAI‐1 increase by up to three orders of magnitude in empyema (pleural sepsis), and organizing pleural injury (Aleman et al., 2003; Chung et al., 2005; Philip‐Joet et al., 1995), limiting endogenous and exogenous plasminogen activating activity that could help prevent or treat uncontrolled fibrin deposition induced by inflammation. First, DSP alone was used to treat pleural injury in both models to determine its effects on the endogenous fibrinolytic system. The results (Figure 2) clearly indicate that even a relatively high dose of DSP (2.0 mg/kg) is insufficient to mobilize endogenous fibrinolysis effectively once pleural injury has developed; there was no reversal effect with DSP alone. DSP alone, even at a 4‐fold higher dose (8.0 mg/kg), was also ineffective (GLIS>10) in treatment of empyema (Figure 2). Next, PAI‐1‐TFT with ...

[4] = test system: Streptococcus pneumoniae induced empyema; details: higher in empyema; ref Idell et al., 2007; cited from earlier work
From the text: as §1

[5] = plasminogen activator 0.5 mg/kg alone, empyema

Substance	Gross lung injury score (GLIS) ([1]; sctPA 72.5 µg/kg alone (1/2 of MED), n = 5)	Outcome of fibrinolytic therapy (GLIS) [2, 5]	Outcome of fibrinolytic therapy (GLIS) ([2]; sctPA 0.25 mg/kg alone, acute empyema)	GLIS of representative animal ([2]; sctPA 0.25 mg/kg alone, photograph 24 h after treatment)	Minimal effective dose (MED) of sctPA with DSP ([2]; with 8.0 mg/kg DSP, acute empyema)	Minimal effective dose (MED) of plasminogen activator alone [3]	MED for empyema relative to MED in TCN-induced pleural injury [4]	Gross lung injury score (GLIS) ([1]; scuPA 62.5 µg/kg alone (1/8 of MED), n = 6)
Alteplase [sctPA, reference compound]	> 10	ineffective	ineffective	50	0.25 mg/kg	0.145 mg/kg	13.8 fold	
Prourokinase [scuPA]		ineffective				0.5 mg/kg	4 fold	> 10
